The source of these data is paper PMC6278284, “Synthesis of Jacaranone-Derived Nitrogenous Cyclohexadienones and Their Antiproliferative and Antiprotozoal Activities” (Molecules, 2018).

Data set [1] has as its system P. falciparum, strain NF54, erythrocytic stages. In words: In vitro growth inhibition assay of Plasmodium falciparum NF54 ([3H]-hypoxanthine incorporation). The format is cell-based. The settings on record: for IC50: Plasmodium falciparum; for SI (IC50 in L6 cells/IC50 P. falciparum): ratio IC50 L6 / IC50 P. falciparum NF54. On the procedure:
In vitro activity against erythrocytic stages of P. falciparum was determined by a modified [^3H]-hypoxanthine incorporation assay using the drug-sensitive NF54 strain and the standard drug, chloroquine (Sigma C6628). Briefly, parasite cultures incubated in RPMI 1640 medium with 5% AlbuMAX^TM (without hypoxanthine) were exposed to serial drug dilutions in microtiter plates. After 48 h of incubation at 37 °C in a reduced oxygen atmosphere, 0.5 μCi [^3H]-hypoxanthine was added to each well of the plate. Cultures were incubated for a further 24 h before they were harvested onto glass-fiber filters and washed with distilled water. The radioactivity was counted using a Betaplate^TM liquid scintillation counter (Wallac, Zurich). The results were recorded as counts per minute (CPM) per well at each drug concentration and expressed as a percentage of the untreated controls. IC50 values were calculated from the sigmoidal inhibition curves using Microsoft Excel.

Data set [2] relates to MRC-5 non-tumorigenic lung fibroblasts. In words: XTT viability assay, MRC-5. Type of data set: cell-based, human. The settings on record: Homo sapiens, MRC5, read-out: metabolic active cells in % of control; for viability at 5 µg/mL: MRC-5, 5 µg/mL; for viability at 5 µg/mL / viability at 50 µg/mL: 72 h; for viability at 50 µg/mL: MRC-5, 50 µg/mL. Here is the method: (§1) Human CCRF-CEM leukemia and MDA-MB-231 breast cancer cells lines were kept in RPMI1640 medium (Gibco®, ThermoFisher Scientific Inc., New York, NY, USA), supplemented with 2 mM L-glutamine (Gibco®), 10% heat-inactivated foetal bovine serum (FBS, Gibco®), 100 units/mL Penicillin (PAA), and 100 µg/mL Streptomycin (Gibco®) (1% Pen/Strep). HCT-116 and U251 cells were cultured in high-glucose Dulbecco’s Modified Eagle Medium (DMEM, Gibco®) containing 2 mM L-glutamine, 10% FBS, and 1% Pen/Strep. MRC-5 cells were grown in Minimum Essential Medium (MEM, Gibco®) supplemented with 2 mM L-glutamine, 10% FBS, and 1% Pen/Strep. All cells were kept in a humidified 5% CO2 atmosphere at 37 °C and passaged at 90% confluence.
(§2) A Cell Proliferation Kit II (XTT) was purchased from Sigma-Aldrich and performed as described previously and in accordance with the manufacturer’s protocol. In brief, adherent cell lines were seeded at a density of 50,000 cells/mL or 100,000 cells/mL (MRC-5) in 96 well plates (100 µL, flat bottom) and grown for 24 h before test compounds were added. Suspension cells (CCRF-CEM) were seeded at 100,000 cells/mL and test compounds were added immediately. After 72 h, XTT solution was added for another 90 min or 4 h (CCRF-CEM cells) and absorbance was measured at 490 nm with a reference wave length of 650 nm (Hidex Sense Microplate Reader 425-301, Hidex, Turku, Finland). Results are expressed as a percentage of the vehicle-treated (0.5% DMSO) control cells. Vinblastine served as the positive control (0.01 µg/mL).
On the technique in general: Tetrazolium dyes change colour on reduction, which living cells bring about.

For data set [3], the system named is L6 cells rat skeletal myoblasts. Briefly: Cytotoxicity against L6 cells (Alamar Blue). Type of data set: cell-based. The settings on record: read-out: Cyt. L6 IC50. Here is the method: Assays were performed in 96-well microtiter plates, each well containing 100 μL of RPMI 1640 medium supplemented with 1% L-glutamine (200 mM) and 10% foetal bovine serum, and 4000 L6 cells (a […] cell line derived from rat skeletal myoblasts). Serial drug dilutions of 11 threefold dilution steps covering a range from 100 to 0.002 μg/mL were prepared. After 72 h of incubation, the plates were inspected under an inverted microscope to assure growth of the controls and sterile conditions. 10 μL of Alamar Blue solution was then added to each well and the plates incubated for another 2 h. Then, the plates were read with a Spectramax Gemini XS microplate fluorometer (Molecular Devices Cooperation, Sunnyvale, CA, USA) using an excitation wavelength of 536 nm and an emission wavelength of 588 nm. The IC50 values were calculated by linear regression from the sigmoidal dose inhibition curves using the microplate reader software, Softmax Pro (Molecular Devices Cooperation, Sunnyvale, CA, USA). Podophyllotoxin (Sigma P4405) was used as the control.

The subject of data set [4] is MDA-MB-231 breast cancer cells. In words: XTT viability assay, MDA-MB-231. The settings on record: Homo sapiens, read-out: metabolic active cells in % of control; for viability at 5 µg/mL: MDA-MB-231, 5 µg/mL; for viability at 5 µg/mL / viability at 50 µg/mL: 72 h; for viability at 50 µg/mL: MDA-MB-231, 50 µg/mL. The format is cell-based. Here is the method:
as §1, §2

In data set [5] the test system is U251 glioblastoma cells. Briefly: XTT viability assay, U251. The settings on record: Homo sapiens, U-251, read-out: metabolic active cells in % of control; for viability at 5 µg/mL: U251, 5 µg/mL; for viability at 5 µg/mL / viability at 50 µg/mL: 72 h; for viability at 50 µg/mL: U251, 50 µg/mL. The format is cell-based. Here is the method: as §1, §2
Data set [6] relates to CCRF-CEM leukemia cells. In words: XTT viability assay, CCRF-CEM. The note with it: Homo sapiens, read-out: metabolic active cells in % of control; for viability at 5 µg/mL / viability at 50 µg/mL: 72 h. Type of data set: cell-based. On the procedure:
as §1, §2

Data set [7] deals with HCT-116 colon cancer cells. In words: XTT viability assay, HCT-116. The format is cell-based. The settings on record: Homo sapiens, read-out: metabolic active cells in % of control; for viability at 5 µg/mL: HCT 116, 5 µg/mL; for viability at 5 µg/mL / viability at 50 µg/mL: 72 h; for viability at 50 µg/mL: HCT 116, 50 µg/mL. On the procedure: as §1, §2
For data set [8], the system named is T. brucei rhodesiense, strain STIB900 trypomastigote forms. Briefly: In vitro growth inhibition assay of Trypanosoma brucei rhodesiense (Alamar Blue). Type of data set: cell-based. The settings on record: for IC50: Trypanosoma brucei, 72 h, read-out: T.b.rhod. IC50; for SI (IC50 in L6 cells/IC50 T. b. rhodesiense): ratio IC50 L6 / IC50 T. b. rhodesiense STIB900. Here is the method:
Trypanosoma brucei rhodesiense, STIB 900 strain, and the standard drug, melarsoprol, were used for the assay. Minimum Essential Medium (50 μL) supplemented with 25 mM HEPES, 1g/L additional glucose, 1% MEM non-essential amino acids (100×), 0.2 mM 2-mercaptoethanol, 1 mM Na-pyruvate, and 15% heat-inactivated horse serum was added to each well of a 96-well microtiter plate. Serial drug dilutions of 11 three-fold dilution steps covering a range from 100 to 0.002 μg/mL were prepared. Then, 4 × 10^3 bloodstream forms of T. b. rhodesiense (STIB 900) in 50 μL were added to each well and the plate was incubated at 37 °C under a 5% CO2 atmosphere for 72 h. 10 μL Alamar Blue (resazurin, 12.5 mg in 100 mL double-distilled water) was then added to each well and incubation continued for a further 2–4 h. Then, the plates were read with a Spectramax Gemini XS microplate fluorometer (Molecular Devices Cooperation, Sunnyvale, CA, USA) using an excitation wavelength of 536 nm and an emission wavelength of 588 nm. The IC50 values were calculated from the sigmoidal inhibition curves using the microplate reader software, Softmax Pro (Molecular Devices Cooperation, Sunnyvale, CA, USA). Melarsoprol was used as the control.

Where [9] appears, read: strain NF54, erythrocytic stages, read-out: P. falc. IC50.
Setting [10] is: L6 rat skeletal myoblasts, 72 h.
[11] abbreviates: strain STIB900, trypomastigote forms.

Where two headings read alike, the source gives them in different places.

Usually IC50 stands for the concentration at which inhibition is half-maximal. A word on the melting point: it is the temperature, or range, at which the solid turns liquid.

For `CCN(CC)CCCC(C)Nc1ccnc2cc(Cl)ccc12` (stereo not drawn) [Chl., Chloroquine, reference compound], the IC50 in data set [1] (NF54, read-out: P. falc. IC50) amounted to 0.002 µM.

With `O=C1C=CC(O)(CCN2C(=O)c3ccccc3C2=O)C=C1` [Compound 13a, N-[2-(1-Hydroxy-4-oxocyclohexa-2,5-dien-1-yl)ethyl]phthalimide], the melting point lay within 161 to 162 °C. Besides, in [2], the viability at 5 µg/mL stood at 43.7% and the viability at 50 µg/mL was 1.93%. In [1] (setting [9]), the IC50 was 3.78 µM. Further, the “SI (IC50 in L6 cells/IC50 P. falciparum)” value in [1] is reported as 1.3. For the same molecule, in [3] (setting [10]), the IC50 stood at 5.08 µM. Moreover, in data set [4], the viability at 5 µg/mL stood at 37.8% and the viability at 50 µg/mL amounted to 17.4%. In addition, in [5], the viability at 5 µg/mL was 90.7% and the viability at 50 µg/mL was determined as 3.21%. Further, in data set [6], the viability at 5 µg/mL was found to be 4.42% and the viability at 50 µg/mL was determined as 1.15%. In data set [7], the viability at 5 µg/mL amounted to 55.4% and the viability at 50 µg/mL was found to be 1.76%. For the same molecule, the IC50 in [8] (setting [11]) was 1.58 µM. The “SI (IC50 in L6 cells/IC50 T. b. rhodesiense)” value in [8] amounted to 3.2.

As to `O=C1C=CC(O)(CCN2C(=O)CCC2=O)C=C1` [Compound 13c, N-[2-(1-Hydroxy-4-oxocyclohexa-2,5-dien-1-yl)ethyl]succinimide], the viability at 5 µg/mL in data set [2] was found to be 139%; in data set [4], 79.8%; in data set [5], 93.3%; in data set [6], 79.1%; in data set [7], 99%. In addition, the viability at 50 µg/mL in data set [2] worked out at 3.55%; in data set [4], 5.72%; in data set [5], 0.59%; in data set [6] it was 2.15%; in data set [7], 1.1%. Further, the values for the IC50 in [1] (setting [9]), in [3] (setting [10]) and in data set [8] (setting [11]) were 8.63 µM, 9.9 µM and 6.93 µM, respectively.

With `O=C1C=CC(O)(CCN2C(=O)c3cc(Cl)c(Cl)cc3C2=O)C=C1` [Compound 13d, 4,5-Dichloro-N-[2-(1-hydroxy-4-oxocyclohexa-2,5-dien-1-yl)ethyl]phthalimide], the melting point lay within 213 to 214 °C. In addition, in data set [2], the viability at 5 µg/mL was determined as 46.4% and the viability at 50 µg/mL is 1.01%. Also, in data set [1] (setting [9]), the IC50 came to 3.24 µM. In data set [1], the “SI (IC50 in L6 cells/IC50 P. falciparum)” value stood at 1.9. Further, the IC50 in data set [3] (setting [10]) was found to be 6.28 µM. In addition, in [4], the viability at 5 µg/mL was found to be 28.6% and the viability at 50 µg/mL was 24.8%. Besides, in [5], the viability at 5 µg/mL stood at 72.1% and the viability at 50 µg/mL stood at 1.79%. Further, in data set [6], the viability at 5 µg/mL turned out to be 13.8% and the viability at 50 µg/mL amounted to 3.33%. Further, in data set [7], the viability at 5 µg/mL worked out at 41.2% and the viability at 50 µg/mL was found to be 0.44%. For the same molecule, the IC50 in [8] (setting [11]) turned out to be 5.71 µM. In data set [8], the “SI (IC50 in L6 cells/IC50 T. b. rhodesiense)” value is 1.1.

`O=C1C=CC(O)(CCN2C(=O)C(Cl)=C(Cl)C2=O)C=C1` [Compound 13e, 3,4-Dichloro-N-[2-(1-hydroxy-4-oxocyclohexa-2,5-dien-1-yl)ethyl]maleimide] yielded a melting point of 168 to 169 °C. Further, in data set [2], the viability at 5 µg/mL is 97% and the viability at 50 µg/mL came out at 0.38%. Also, in data set [1] (setting [9]), the IC50 came out at 74.4 µM. For the same molecule, in data set [1], the “SI (IC50 in L6 cells/IC50 P. falciparum)” value is 0.1. For the same molecule, the concentration for half-maximal inhibition (IC50) in data set [3] (setting [10]) worked out at 10.3 µM. In data set [4], the viability at 5 µg/mL was 81.3% and the viability at 50 µg/mL was found to be 9.53%. In addition, in [5], the viability at 5 µg/mL amounted to 95.6% and the viability at 50 µg/mL turned out to be 1.95%. Besides, in [6], the viability at 5 µg/mL was -2.6% and the viability at 50 µg/mL turned out to be 0.59%. For the same molecule, in [7], the viability at 5 µg/mL was found to be 45.3% and the viability at 50 µg/mL is -0.43%. The IC50 in [8] (setting [11]) was 2.26 µM. Besides, in [8], the “SI (IC50 in L6 cells/IC50 T. b. rhodesiense)” value is recorded as 4.5.

Turning to `Nc1nc(N)nc(Nc2ccc([As]3SCC(CO)S3)cc2)n1` (stereo not drawn) [Mel., melarsoprol, reference compound], in data set [8], the IC50 came out at 0.004 µM.

In the case of `COc1cc([C@@H]2c3cc4c(cc3[C@H](O)[C@H]3COC(=O)[C@H]23)OCO4)cc(OC)c1OC` [Pod., podophyllotoxin, reference compound], the IC50 in [3] (Rattus norvegicus, L6, 72 h) was 0.007 µM.

As for `CC[C@]1(O)C[C@@H]2CN(CCc3c([nH]c4ccccc34)[C@@](C(=O)OC)(c3cc4c(cc3OC)N(C)[C@H]3[C@@](O)(C(=O)OC)[C@H](OC(C)=O)[C@]5(CC)C=CCN6CC[C@]43[C@@H]65)C2)C1` [VBN, Vinblastine, reference compound], the viability at 0.01 µg/mL in data set [2] (MRC-5, 0.01 µg/mL, positive control) amounted to 63.8 ± 5.29%; in data set [4] (MDA-MB-231, 0.01 µg/mL, positive control) it was 42 ± 7.97%; in data set [5] (U251, 0.01 µg/mL, positive control), 45.3 ± 3.81%; in data set [6] (0.01 µg/mL, positive control), 23.6 ± 7.62%; in [7] (HCT 116, 0.01 µg/mL, positive control) it was 39 ± 5.1%.
